The target in the experiment is T1, BCL6::BCOR (Homo sapiens, UniProt P41182, C67R/C84N/C8Q).
T1 construct: BCL6 (amino acids 5 to 129, with the following changes to the natural protein); made in house; host or cells: E. coli
The experiment in a line: BCL6::BCOR ULight TR-FRET assay. The class given is binding. An outline of the steps:
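Biotin-Avi BCL6 (aa 5–129, C8Q/C67R/C84N; E. coli), 1 nM, preincubated 30 min RT with compound (11-point fivefold series, top 100 μM) in HEPES pH 7.3 buffer; then 100 nM ULight-BCOR peptide plus 0.75 nM streptavidin-Eu added, 240 min RT. TR-FRET read, normalized to DMSO controls with/without BCL6.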
(In general: TR-FRET usually uses a lanthanide donor and a delayed reading to cut background.)

In patent US11001570B2, “6-amino-quinolinone compounds and derivatives as BCL6 inhibitors” (Boehringer Ingelheim International GmbH, priority 2016, dated 2021) one finds IC50 data, which are given here for 27 compounds.

Take `CNC(=O)COc1cc2cc(Nc3nc(-n4nc(C)cc4C)ncc3Cl)ccc2n(C)c1=O` [Compound I-149, 2-[(6-{[5-chloro-2-(3,5-dimethyl-1H-pyrazol-1-yl)pyrimidin-4-yl]amino}-1-methyl-2-oxo-1,2-dihydroquinolin-3-yl)oxy]-N-methylacetamide]: the IC50 (as a rule, the concentration that gives 50% inhibition) came to 12 nM.

As to `C[C@@H]1C[C@H](C)CN(c2ncc(Cl)c(Nc3ccc4c(c3)cc(SCC(=O)O)c(=O)n4C)n2)C1` [Compound I-150, 2-{[6-({5-chloro-2-[cis-3,5-dimethylpiperidin-1-yl]pyrimidin-4-yl}amino)-1-methyl-2-oxo-1,2-dihydroquinolin-3-yl]sulfanyl}acetic acid], the concentration for half-maximal inhibition (IC50) is 85 nM.

The compound `CNC(=O)COc1cc2cc(Nc3nc(N4CCC(C(=O)N(C)C)CC4)ncc3Cl)ccc2n(CCCO)c1=O` [Compound I-151, 1-(5-chloro-4-{[1-(3-hydroxypropyl)-3-[(methyl-carbamoyl)methoxy]-2-oxo-1,2-dihydroquinolin-6-yl]amino}pyrimidin-2-yl)-N,N-dimethyl-piperidine-4-carboxamide] showed an IC50 of 6 nM.

`CN(C)C(=O)C1CCN(c2ncc(Cl)c(Nc3ccc4c(c3)cc(OCC(=O)O)c(=O)n4C)n2)CC1` [Compound I-152, 2-{[6-({5-chloro-2-[4-(dimethylcarbamoyl)piperidin-1-yl]pyrimidin-4-yl}amino)-1-methyl-2-oxo-1,2-dihydroquinolin-3-yl]oxy}acetic acid] registered an IC50 of 5 nM.

For the compound `Cc1cc(C)n(-c2ncc(Cl)c(Nc3ccc4c(c3)cc(OCC(=O)O)c(=O)n4C)n2)n1` [Compound I-153, 2-[(6-{[5-chloro-2-(3,5-dimethyl-1H-pyrazol-1-yl)pyrimidin-4-yl]amino}-1-methyl-2-oxo-1,2-dihydroquinolin-3-yl)oxy]acetic acid], the IC50 came out at 11 nM.

Turning to `CNC(=O)COc1cc2cc(Nc3nc(N4C[C@H](C)C[C@H](C)C4)ncc3Cl)cnc2n(C)c1=O` [Compound I-155], the IC50 was found to be 9 nM.

The compound `CNC(=O)COc1cc2cc(Nc3nc(N4CCC(C(=O)N(C)C)CC4)ncc3Cl)c(F)cc2n(C)c1=O` [Compound I-156] registered a concentration for half-maximal inhibition (IC50) of 19 nM.

The compound `CNC(=O)COc1cc2cc(Nc3nc(N4CCC(C(=O)N(C)C)CC4)ncc3Cl)ccc2n(C)c1=O` [Compound I-157] yielded an IC50 of 5 nM.

`CNC(=O)COc1cc2cc(Nc3nc(N4CCC(C(=O)N(C)C)CC4)ncc3Cl)ccc2n(C(C)C)c1=O` [Compound I-158] came in with an IC50 of 6 nM.

Regarding `CNC(=O)COc1cc2cc(Nc3nc(N4C[C@H](C)C[C@H](C)C4)ncc3Cl)ccc2n(CCN(C)C)c1=O` [Compound I-159], the half-inhibitory concentration (IC50) came out at 85 nM.

As to `CCn1c(=O)c(OCC(=O)NC)cc2cc(Nc3nc(-n4nc(C)cc4C)ncc3Cl)ccc21` [Compound I-160], the IC50 was found to be 7 nM.

Turning to `CCn1c(=O)c(OCC(=O)NC)cc2cc(Nc3nc(N4CCC(C(=O)N(C)C)CC4)ncc3Cl)ccc21` [Compound I-161], the IC50 was 5 nM.

For `CNC(=O)[C@@H](C)Oc1cc2cc(Nc3nc(N4CCC(C(=O)N(C)C)CC4)ncc3Cl)ccc2n(C)c1=O` [Compound I-162], the IC50 came out at 98 nM.

`CNC(=O)COc1cc2cc(Nc3nc(N4CCC(C(=O)N(C)C)CC4)ncc3Cl)c(OC)cc2n(C)c1=O` [Compound I-163] gave an IC50 of 60 nM.

Compound `CNC(=O)COc1cc2cc(Nc3nc(N4CCC(C(=O)N(C)C)CC4)ncc3Cl)c(Cl)cc2n(C)c1=O` [Compound I-164] showed an IC50 of 281 nM.

As to `C[C@@H]1C[C@H](C)CN(c2ncc(Cl)c(Nc3ccc4c(c3)cc(/C=C/C(=O)O)c(=O)n4C)n2)C1` [Compound I-165], the concentration for half-maximal inhibition (IC50) is 22 nM.

As for `CNC(=O)COc1cc2cc(Nc3nc(-n4nc(C(=O)N5CCN(C)CC5)cc4C)ncc3Cl)ccc2n(C)c1=O` [Compound I-166, 2-{[6-({5-chloro-2-[5-methyl-3-(4-methylpiperazine-1-carbonyl)-1H-pyrazol-1-yl]pyrimidin-4-yl}amino)-1-methyl-2-oxo-1,2-dihydroquinolin-3-yl]oxy}-N-methylacetamide], the IC50 was found to be 16 nM.

As to `CNC(=O)COc1cc2cc(Nc3nc(N4CCC[C@@H](C(=O)O)C4)ncc3Cl)ccc2n(C)c1=O` [Compound I-167, (3R)-1-[5-chloro-4-({1-methyl-3-[(methylcarbamoyl)methoxy]-2-oxo-1,2-dihydroquinolin-6-yl}-amino)pyrimidin-2-yl]piperidine-3-carboxylic acid], the IC50 turned out to be 4 nM.

As to `CNC(=O)COc1cc2cc(Nc3nc(N4CCC[C@@H](C(=O)N(C)C)C4)ncc3Cl)ccc2n(C)c1=O` [Compound I-168, (3R)-1-[5-chloro-4-({1-methyl-3-[(methylcarbamoyl)methoxy]-2-oxo-1,2-dihydroquinolin-6-yl}amino)pyrimidin-2-yl]-N,N-dimethylpiperidine-3-carboxamide], it took 6 nM to reach half-maximal inhibition (IC50).

Regarding `CNC(=O)COc1cc2cc(Nc3nc(N4CCC[C@@H](C(=O)N5CCN(C)CC5)C4)ncc3Cl)ccc2n(C)c1=O` [Compound I-169], half-maximal inhibition (IC50) was put at 6 nM.

`CNC(=O)COc1cc2cc(Nc3nc(N4CCC[C@@H](C(=O)N(C)C5CCN(C)CC5)C4)ncc3Cl)ccc2n(C)c1=O` [Compound I-170] had an IC50 of 8 nM.

In turn, `CN(C)C(=O)COc1cc2cc(Nc3nc(N4CCC(C(=O)N(C)C)CC4)ncc3Cl)ccc2n(C)c1=O` [Compound I-171] returned an IC50 of 39 nM.

With `C[C@@H]1C[C@H](C)CN(c2ncc(Cl)c(Nc3ccc4c(c3)cc(OCP(C)(C)=O)c(=O)n4C)n2)C1` [Compound I-172, 6-({5-chloro-2-[cis-3,5-dimethylpiperidin-1-yl]pyrimidin-4-yl}amino)-3-[(dimethylphosphoryl)-methoxy]-1-methyl-1,2-dihydroquinolin-2-one], inhibition was half-maximal at 187 nM (IC50).

For the compound `C#CCNC(=O)COc1cc2cc(Nc3nc(N4CCC(C(=O)N(C)C)CC4)ncc3Cl)ccc2n(C)c1=O` [Compound I-175], the IC50 was 10 nM.

On to `C[C@@H]1C[C@H](C)CN(c2ccc(Cl)c(Nc3ccc4c(c3)cc(OCC(=O)O)c(=O)n4C)n2)C1` [Compound I-176, 2-{[6-({3-chloro-6-[cis-3,5-dimethylpiperidin-1-yl]pyridin-2-yl}amino)-1-methyl-2-oxo-1,2-dihydroquinolin-3-yl]oxy}acetic acid], for which the IC50 worked out at 106 nM.

`CNC(=O)COc1cc2cc(Nc3nc(N4C[C@H](C)C[C@H](C)C4)ccc3Cl)ccc2n(C)c1=O` [Compound I-177, 2-{[6-({3-chloro-6-[cis-3,5-dimethylpiperidin-1-yl]pyridin-2-yl}amino)-1-methyl-2-oxo-1,2-dihydroquinolin-3-yl]oxy}-N-methylacetamide] had an IC50 of 87 nM.

On to `CNC(=O)COc1cc2cc(Nc3cc(N4C[C@H](C)C[C@H](C)C4)ncc3Cl)ccc2n(C)c1=O` [Compound I-178, 2-{[6-({5-chloro-2-[cis-3,5-dimethylpiperidin-1-yl]pyridin-4-yl}amino)-1-methyl-2-oxo-1,2-dihydroquinolin-3-yl]oxy}-N-methylacetamide], for which the IC50 came to 22 nM.
